# Legend:
# Assay type in all cases: cell-based
# NCI-H526 cell line = experiment: Cell viability assay for H526 cell (EZ-Cytox); details: Homo sapiens, NCI-H526, 120 h; H526 cells, 5 days, 3000 nM to 0.46 nM
# How it was run: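 NCI-H526 cells were exposed to compound in CO2 incubator culture for 5 days. Viability was read by EZ-Cytox absorbance at 450 nm after 3 min shaking, giving IC50 values.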
# PLK1 = target: T1, PLK1 (Homo sapiens, UniProt P53350); experiment: Luciferase assay for PLK1 in HeLa LgBit (Plk1-HiBit KI) cell line; details: 300 nM compound, luminescence after 9 hours
# T1 construct: endogenous in cells; host or cells: HeLa LgBit (Plk1-HiBit KI): HeLa stably expressing LgBit, with a CRISPR/Cas9 knock-in of HiBit at the endogenous PLK1 locus
# How it was run: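 HeLa cells stably expressing LgBit, with HiBit knocked in at the C-terminus of endogenous Plk1, released from a 24 h 2 mM thymidine block and grown 18 h. Endurazine added, then compound at 300 nM; luminescence tracked in real time, expressed as ratio to DMSO.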
# MRC-5 cell line = experiment: Cell viability assay for MRC-5 cell line (EZ-Cytox); details: Homo sapiens, MRC5, 120 h; MRC-5 normal cell line, 5 days, 10000 nM to 1.52 nM; N.D. = no cytotoxicity until 10 μM; read-out: Activity: IC50 value of Exemplary Compound to MRC-5 cell line
# Experimental: 4. Cell Viability Assay for MRC-5 Cell Line
# (1) Culture of MRC-5 Cell Line
# Passage of cultured cells was maintained within P15.
# (2) Treatment of Compounds of the Present Invention
# Then, it was cultured in 37° C.
# (3) Cytotoxicity Experiment
# CO2 incubator for 4 hours.
# T1 sequence (P53350 whole entry): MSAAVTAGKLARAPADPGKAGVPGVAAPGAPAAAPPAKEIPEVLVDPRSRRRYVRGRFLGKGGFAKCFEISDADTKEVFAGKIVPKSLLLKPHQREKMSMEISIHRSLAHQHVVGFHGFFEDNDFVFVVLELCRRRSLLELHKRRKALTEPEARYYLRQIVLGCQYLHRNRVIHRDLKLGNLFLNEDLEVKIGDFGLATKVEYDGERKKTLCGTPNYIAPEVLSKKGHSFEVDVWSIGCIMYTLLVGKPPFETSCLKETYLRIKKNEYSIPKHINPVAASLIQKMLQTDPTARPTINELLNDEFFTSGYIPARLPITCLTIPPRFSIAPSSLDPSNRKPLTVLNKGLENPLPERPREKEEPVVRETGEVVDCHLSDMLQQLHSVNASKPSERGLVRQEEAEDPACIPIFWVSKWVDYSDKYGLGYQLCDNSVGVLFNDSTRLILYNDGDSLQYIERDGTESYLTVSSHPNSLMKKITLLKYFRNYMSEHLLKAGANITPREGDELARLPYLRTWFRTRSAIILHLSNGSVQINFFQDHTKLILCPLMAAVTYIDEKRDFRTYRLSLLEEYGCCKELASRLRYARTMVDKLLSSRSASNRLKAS
SMILES,IC50 (NCI-H526 cell line),Activity: ratio of the luminescense value of each Exemplary Compound treatment group to DMSO treatment group (PLK1),IC50 (MRC-5 cell line)
"COc1cc(C(=O)N(C)C2CCN(C(=O)CCN3CCN(c4cccc5c4C(=O)N(C4CCC(=O)NC4=O)C5=O)CC3)CC2)ccc1Nc1ncc2c(n1)N(C1CCCC1)CC(F)(F)C(=O)N2C (stereo not drawn) [Compound 77, 4-((9-cyclopentyl-7,7-difluoro-5-methyl-6-oxo-6,7,8,9-tetrahydro-5H-pyrimido[4,5-b][1,4]diazepin-2-yl)amino)-N-(1-(3-(4-(2-(2,6-dioxopiperidin-3-yl)-1,3-dioxoisoindolin-4-yl)piperazin-1-yl)propanoyl)piperidin-4-yl)-3-methoxy-N-methylbenzamide]",< 0.1 µM,++ (++<0.6),> 10 µM
"COc1cc(C(=O)NC2CCN(C(=O)CCN3CCN(c4cccc5c4C(=O)N(C4CCC(=O)NC4=O)C5=O)CC3)CC2)c(Cl)cc1Nc1ncc2c(n1)N(C1CCCC1)CC(F)(F)C(=O)N2C (stereo not drawn) [Compound 78, 2-chloro-4-((9-cyclopentyl-7,7-difluoro-5-methyl-6-oxo-6,7,8,9-tetrahydro-5H-pyrimido[4,5-b][1,4]diazepin-2-yl)amino)-N-(1-(3-(4-(2-(2,6-dioxopiperidin-3-yl)-1,3-dioxoisoindolin-4-yl)piperazin-1-yl)propanoyl)piperidin-4-yl)-5-methoxybenzamide]",< 0.1 µM,+++ (+++: <0.3),> 10 µM
"COc1cc(C(=O)NC2CCN(C(=O)COC3CCN(c4cccc5c4C(=O)N(C4CCC(=O)NC4=O)C5=O)CC3)CC2)ccc1Nc1ncc2c(n1)N(C1CCCC1)CC(F)(F)C(=O)N2C (stereo not drawn) [Compound 79, 4-((9-cyclopentyl-7,7-difluoro-5-methyl-6-oxo-6,7,8,9-tetrahydro-5H-pyrimido[4,5-b][1,4]diazepin-2-yl)amino)-N-(1-(2-((1-(2-(2,6-dioxopiperidin-3-yl)-1,3-dioxoisoindolin-4-yl)piperidin-4-yl)oxy)acetyl)piperidin-4-yl)-3-methoxybenzamide]",< 0.1 µM,+++ (+++: <0.3),> 10 µM
"COc1cc(C(=O)NC2CCN(C(=O)CCN3CCN(c4cccc5c4CN(C4CCC(=O)NC4=O)C5=O)CC3)CC2)ccc1Nc1ncc2c(n1)N(C1CCCC1)CC(F)(F)C(=O)N2C (stereo not drawn) [Compound 81, 4-((9-cyclopentyl-7,7-difluoro-5-methyl-6-oxo-6,7,8,9-tetrahydro-5H-pyrimido[4,5-b][1,4]diazepin-2-yl)amino)-N-(1-(3-(4-(2-(2,6-dioxopiperidin-3-yl)-1-oxoisoindolin-4-yl)piperazin-1-yl)propanoyl)piperidin-4-yl)-3-methoxybenzamide]",< 0.05 µM,++ (++<0.6),> 10 µM
"COc1cc(C(=O)NC2CCN(C(=O)CCN3CCN(c4ccc5c(c4)CN(C4CCC(=O)NC4=O)C5=O)CC3)CC2)ccc1Nc1ncc2c(n1)N(C1CCCC1)CC(F)(F)C(=O)N2C (stereo not drawn) [Compound 82, 4-((9-cyclopentyl-7,7-difluoro-5-methyl-6-oxo-6,7,8,9-tetrahydro-5H-pyrimido[4,5-b][1,4]diazepin-2-yl)amino)-N-(1-(3-(4-(2-(2,6-dioxopiperidin-3-yl)-1-oxoisoindolin-5-yl)piperazin-1-yl)propanoyl)piperidin-4-yl)-3-methoxybenzamide]",< 0.03 µM,++ (++<0.6),> 10 µM
"COc1cc(C(=O)N2CCN(CCN3CCN(c4ccc5c(c4)C(=O)N(C4CCC(=O)NC4=O)C5=O)CC3)CC2)ccc1Nc1ncc2c(n1)N(C1CCCC1)CC(F)(F)C(=O)N2C (stereo not drawn) [Compound 89, 5-(4-(2-(4-(4-((9-cyclopentyl-7,7-difluoro-5-methyl-6-oxo-6,7,8,9-tetrahydro-5H-pyrimido[4,5-b][1,4]diazepin-2-yl)amino)-3-methoxybenzoyl)piperazin-1-yl)ethyl)piperazin-1-yl)-2-(2,6-dioxopiperidin-3-yl)isoindoline-1,3-dione]",< 0.4 µM,++ (++<0.6),> 10 µM
"COc1cc(C(=O)N2CCN(CCCN3CCN(c4ccc5c(c4)C(=O)N(C4CCC(=O)NC4=O)C5=O)CC3)CC2)ccc1Nc1ncc2c(n1)N(C1CCCC1)CC(F)(F)C(=O)N2C (stereo not drawn) [Compound 90, 5-(4-(3-(4-(4-((9-cyclopentyl-7,7-difluoro-5-methyl-6-oxo-6,7,8,9-tetrahydro-5H-pyrimido[4,5-b][1,4]diazepin-2-yl)amino)-3-methoxybenzoyl)piperazin-1-yl)propyl)piperazin-1-yl)-2-(2,6-dioxopiperidin-3-yl)isoindoline-1,3-dione]",< 0.4 µM,++ (++<0.6),> 10 µM
"COc1cc(C(=O)N2CCN(CCCCN3CCN(c4ccc5c(c4)C(=O)N(C4CCC(=O)NC4=O)C5=O)CC3)CC2)ccc1Nc1ncc2c(n1)N(C1CCCC1)CC(F)(F)C(=O)N2C (stereo not drawn) [Compound 91, 5-(4-(4-(4-(4-((9-cyclopentyl-7,7-difluoro-5-methyl-6-oxo-6,7,8,9-tetrahydro-5H-pyrimido[4,5-b][1,4]diazepin-2-yl)amino)-3-methoxybenzoyl)piperazin-1-yl)butyl)piperazin-1-yl)-2-(2,6-dioxopiperidin-3-yl)isoindoline-1,3-dione]",< 0.4 µM,++ (++<0.6),> 10 µM
"COc1cc(C(=O)N2CCN(C/C=C/CN3CCN(c4ccc5c(c4)C(=O)N(C4CCC(=O)NC4=O)C5=O)CC3)CC2)ccc1Nc1ncc2c(n1)N(C1CCCC1)CC(F)(F)C(=O)N2C (stereo not drawn) [Compound 92, (E)-5-(4-(4-(4-(4-((9-cyclopentyl-7,7-difluoro-5-methyl-6-oxo-6,7,8,9-tetrahydro-5H-pyrimido[4,5-b][1,4]diazepin-2-yl)amino)-3-methoxybenzoyl)piperazin-1-yl)but-2-en-1-yl)piperazin-1-yl)-2-(2,6-dioxopiperidin-3-yl)isoindoline-1,3-dione]",< 0.2 µM,++ (++<0.6),> 10 µM
"COc1cc(C(=O)N2CCC(CCN3CCN(c4ccc5c(c4)C(=O)N(C4CCC(=O)NC4=O)C5=O)CC3)CC2)ccc1Nc1ncc2c(n1)N(C1CCCC1)CC(F)(F)C(=O)N2C (stereo not drawn) [Compound 98, 5-(4-(2-(1-(4-((9-cyclopentyl-7,7-difluoro-5-methyl-6-oxo-6,7,8,9-tetrahydro-5H-pyrimido[4,5-b][1,4]diazepin-2-yl)amino)-3-methoxybenzoyl)piperidin-4-yl)ethyl)piperazin-1-yl)-2-(2,6-dioxopiperidin-3-yl)isoindoline-1,3-dione]",< 0.4 µM,++ (++<0.6),> 10 µM
"COc1cc2c(cc1Nc1ncc3c(n1)N(C1CCCC1)CC(F)(F)C(=O)N3C)CCN(C1CCN(C(=O)CCN3CCN(c4cccc5c4C(=O)N(C4CCC(=O)NC4=O)C5=O)CC3)CC1)C2=O (stereo not drawn) [Compound 102, 4-(4-(3-(4-(6-((9-cyclopentyl-7,7-difluoro-5-methyl-6-oxo-6,7,8,9-tetrahydro-5H-pyrimido[4,5-b][1,4]diazepin-2-yl)amino)-7-methoxy-1-oxo-3,4-dihydroisoquinolin-2(1H)-yl)piperidin-1-yl)-3-oxopropyl)piperazin-1-yl)-2-(2,6-dioxopiperidin-3-yl)isoindoline-1,3-dione]",< 0.4 µM,++ (++<0.6),14.4 µM
"COc1cc(C(=O)NC2CC(N(C)CCC3CCN(c4ccc5c(c4)C(=O)N(C4CCC(=O)NC4=O)C5=O)CC3)C2)ccc1Nc1ncc2c(n1)N(C1CCCC1)CC(F)(F)C(=O)N2C (stereo not drawn) [Compound 106, 4-((9-cyclopentyl-7,7-difluoro-5-methyl-6-oxo-6,7,8,9-tetrahydro-5H-pyrimido[4,5-b][1,4]diazepin-2-yl)amino)-N-(3-((2-(1-(2-(2,6-dioxopiperidin-3-yl)-1,3-dioxoisoindolin-5-yl)piperidin-4-yl)ethyl)(methyl)amino)cyclobutyl)-3-methoxybenzamide]",< 0.1 µM,+++ (+++: <0.3),> 10 µM
"COc1cc(C(=O)NC2CC(N(C)CCC3CCN(c4cccc5c4C(=O)N(C4CCC(=O)NC4=O)C5=O)CC3)C2)ccc1Nc1ncc2c(n1)N(C1CCCC1)CC(F)(F)C(=O)N2C (stereo not drawn) [Compound 107, 4-((9-cyclopentyl-7,7-difluoro-5-methyl-6-oxo-6,7,8,9-tetrahydro-5H-pyrimido[4,5-b][1,4]diazepin-2-yl)amino)-N-(3-((2-(1-(2-(2,6-dioxopiperidin-3-yl)-1,3-dioxoisoindolin-4-yl)piperidin-4-yl)ethyl)(methyl)amino)cyclobutyl)-3-methoxybenzamide]",< 0.1 µM,++ (++<0.6),> 10 µM
